This is an account of results in US10183030B2, “17α,21-diesters of cortexolone for use in the treatment of tumors” (COSMO TECHNOLOGIES LTD., priority 2014, dated 2019).

Test [1] deals with Panc1 (AR+) pancreatic cancer cells. Description: ATP-dependent proliferation/viability assay, Panc1. It counts as cell-based. Conditions: Homo sapiens. The procedure:
(§1) The experimental method consisted of: • 1. […] After 24 hours, 10 nM DHT (dihydrotestosterone) with or without anti-androgen compounds, or DMSO vehicle (negative control) was added to the cultures. • 3.
(§2) Each compounds was titrated from 3 uM to 200 uM.

The test system of test [2] is stimulated PBMC (actively dividing cells). Description: IC50 on stimulated PBMC (intrinsic toxicity). Format: cell-based. Conditions: Homo sapiens.
Procedure: (§5) The IC50 in PBMC were tested in 2 different activation status: • stimulated—actively dividing cells • resting—quiescent, non-dividing cells
(§6) IC50 of the compounds was determined on fresh cells isolated from human blood (PBMC).
The subject of a further test is MCF7 breast cancer cells. Description: In vitro proliferation / cytotoxic assay, MCF7. Format: cell-based. Conditions: Homo sapiens; MCF7; Table IV; read-out: In vitro proliferation IC50 (micro Molar).
In the next test the test system is HT29 colon cancer cells. Description: In vitro proliferation, HT29 (cancer cell panel). Conditions: Homo sapiens, HT-29; HT29; Table IV; read-out: In vitro proliferation IC50 (micro Molar). Format: cell-based. On the procedure: as §2
Test [3] has as its system MiaPaca2 (AR low) pancreatic cancer cells. Description: ATP-dependent proliferation/viability assay, MiaPaca2. The following applies: Homo sapiens. Format: cell-based. On the procedure: as §1, §2
The subject of test [4] is PC3 (AR−) prostate cancer cells. Description: ATP-dependent proliferation/viability assay, PC3. It counts as cell-based. Conditions: Homo sapiens, 72 h, 3 days. The procedure:
(§3) The experiment was performed to test and to define the antitumor activity in vitro of cortexolone 17α-benzoate on LNCaP (AR^+) and PC3 (AR^−), representative of Prostatic cancer cell lines with Androgen Receptor (AR) positive or negative expression, respectively. The experimental method consisted of: • 1. […] After 24 hours, 10 nM DHT (dihydrotestosterone) with or without anti-androgen compounds, or DMSO vehicle (negative control) was added to the cultures. • 3.
(§4) The experiment was performed to test and to define antitumor activity in vitro of cortexolone 17α-valerate-21-propionate (CB-03-10) on LNCaP (AR^+) and PC3 (AR^−), representative of Prostatic cancer cell lines with AR positive or negative expression, respectively. The experimental method consisted of: • 1. […] After 24 hours, 10 nM DHT (dihydrotestosterone) with or without anti-androgen compounds, or DMSO vehicle (negative control) was added to the cultures. • 3.
as §2

The subject of test [5] is LNCaP (AR+) prostate cancer cells. Description: ATP-dependent proliferation/viability assay, LNCaP. Format: cell-based. The following applies: Homo sapiens. On the procedure:
as §3, §4, §2

The subject of test [6] is PC3 (AR−) prostate cancer cells. Description: ATP-dependent proliferation/viability assay, PC3. It counts as cell-based. The following applies: Homo sapiens, Table IV, read-out: In vitro proliferation IC50 (micro Molar).
In test [7] the test system is MiaPaca-2 xenograft tumor. Description: MiaPaca2 human pancreatic tumor xenograft in nude mice, subcutaneous treatment. Format: in vivo, mouse. On the procedure: The test was carried out comparing the anti-tumor activity of cortexolone 17α-benzoate at two different dosages (8.0 mg/kg, corresponding approximately at 230 μM, and 40 mg/kg, corresponding approximately at 1150 μM), versus the vehicle (i.e. 0.4% (v/v) tween 80 and 0.5% (w/v) carboxymethylcellulose in normal saline) and versus the comparator Cyproterone Acetate at two different dosages (7.4 mg/kg and 37 mg/kg).
1×10^6 MiaPaca-2 cells suspended in matrigel were subcutaneously injected into 6 week old athymic nude mice.
The treatment with the tested compounds, with the vehicle and with the comparative compound, was initiated after the tumor volume has reached 50 mm^3 after transplantation. All compounds were injected 100 μL/mouse subcutaneously of low dose solution (approximately 230 μM) or 100 μL/mouse of high dose solution (approximately 1150 μM) of cortexolone 17α-benzoate, vehicle and cyproterone acetate, respectively. Compounds and controls were administered subcutaneously daily for 28 days.
Tumors were measured every 4 days with a digital caliper.
The results are plotted in FIG. 1 as average change in tumor volume relative to the start of treatment. Tumor volume was calculated according to the formula 0.5236(r1)^2(r2) where r1<r2.
The test was carried out comparing the anti-tumor activity of cortexolone 17α-valerate-21-propionate (CB-03-10) at two different dosages (approximately 8.6 mg/kg and 43 mg/kg) versus the vehicle (i.e. 0.4% (v/v) tween 80 and 0.5% (w/v) carboxymethylcellulose in normal saline) and versus the comparator Cyproterone Acetate at two different dosages (7.4 mg/kg and 37 mg/kg).
The treatment with the tested compound, with the vehicle and with the comparative compound was initiated after the tumor has reached a volume of 50 mm^3 after implantation, injecting subcutaneously 100 μL/mouse of low dose solution (approximately 230 μM) or 100 μL/mouse of high dose solution (approximately 1150 μM) of cortexolone 17α-valerate-21-propionate (CB-03-10), vehicle and cyproterone acetate, respectively. Compounds and controls were administered subcutaneously daily for 28 days.
The results are plotted in FIG. 2 as average change in tumor volume relative to the start of treatment. Tumor volume was calculated according to the formula 0.5236(r1)^2(r2) where r1<r2.
CPA a well-known anti-androgen was used as control. Briefly 1×10^6 MiaPaca2 cells suspended in matrigel were subcutaneously (SC) injected into 6 week old male athymic nude mice. Tumors were measured every 4 days with a digital caliper. Tumor volume was calculated according to the formula: 0.5236(r1) 2(r2) where r1<r2. Treatment with CB-03-10 and controls compounds was initiated after the tumor had reached 50 mm^3. Compounds diluted in DMSO/2-hydroxypropyl b-cyclodextrin (vehicle) were injected subcutaneously (SC) daily (100 μL/mouse) at the concentration of 40 mg/Kg daily for 28 consecutive days.

Test [8] relates to resting PBMC (quiescent, non-dividing cells). Description: IC50 on resting PBMC (intrinsic toxicity). Format: cell-based. The following applies: Homo sapiens, resting PBMC.
Procedure: as §5, §6
For test [9], the system named is Caspase 8, 9 and 3/7 in MiaPaca2 cells. Description: Caspase activity in MiaPaca2 cells. Format: cell-based, human. Conditions: 8, 24, 48 hours. On the procedure:
From previous studies was determined that CB-03-10 induces apoptosis using Annexin V staining in MiaPaca2 cells. To better analyze the phenomenon the enzymatic activity of Caspase 8 (initiator caspase for Extrinsic Pathway) and Caspase 9 (initiator caspase for Intrinsic Pathway) and of Caspases 3 and 7 (effector caspases) were measured.
After 24 hours test compounds were added to cells, Gemcitabine (a known pancreatic cancer chemotherapeutic agent) and DMSO were used as positive and negative control, respectively. After 8, 24, & 48 hours incubation with test compounds, cells were lysed in buffer containing the caspase 3/7 or 8 or 9 substrate and a stable luciferase in proprietary buffers. The lysates were transferred to white opaque plates before measuring luminescence in a Tecan Safire instrument. Parallel plates treated identically, were used to determine viable cells. All caspase activities were corrected for the number of viable cells.

The mark [10] stands for this setting: PANC-1, 72 h, Panc1, Tables I and II, unit inferred, titrated from 3 uM to 200 uM, 3 days, read-out: IC50.
Where [11] appears, read: PANC-1, Panc1, Table IV, read-out: In vitro proliferation IC50 (micro Molar).
The mark [12] stands for this setting: PBMC STIMULATED, Table IV, read-out: In vitro proliferation IC50 (micro Molar).
The mark [13] stands for this setting: MIA PaCa-2, 72 h, MiaPaca2, Tables I and II, unit inferred, titrated from 3 uM to 200 uM, 3 days, read-out: IC50.
Where [14] appears, read: MIA PaCa-2, MiaPaca2, Table IV, read-out: In vitro proliferation IC50 (micro Molar).
[15] abbreviates: Tables I and II, unit inferred, titrated from 3 uM to 200 uM.
The mark [16] stands for this setting: 72 h, Tables I and II, unit inferred, compounds titrated from 3 uM to 200 uM, 3 days, read-out: IC50.
[17] abbreviates: Table IV, read-out: In vitro proliferation IC50 (micro Molar).

Where two headings read alike, the source gives them in different places.

Procedure for MCF7 breast cancer cells: After 72 hours incubation cell were harvested, lysed and viability determined using the cell titer glow assay for viability.

Turning to `CCCC(=O)OC1(C(=O)CO)CCC2C3CCC4=CC(=O)CC[C@]4(C)C3=CC[C@@]21C` (single isomer, unassigned) [CB-03-04], the IC50 stood at 340 µM in test [1] (setting [10]); 340 µM in test [1] (setting [11]); 360 µM in test [2] (setting [12]); 88 µM in the test on MCF7 breast cancer cells; 51 µM with HT29 colon cancer cells; 160 µM in test [3] (setting [13]). In test [3] (setting [14]), the IC50 stood at 160 µM.

For the molecule `CCC(=O)O[C@]1(C(=O)CO)CC[C@H]2[C@@H]3CCC4=CC(=O)CC[C@]4(C)[C@H]3CC[C@@]21C` [CB-03-01], the IC50 in test [4] (setting [15]) turned out to be 190 µM; in test [1] (setting [10]), 490 µM; in [1] (setting [11]) it was 490 µM; in test [2] (setting [12]), 0.1 µM; in test [5] (setting [16]), 33 µM; in [5] (setting [17]), 33 µM. Also, the IC50 in the test with MCF7 breast cancer cells stood at 121 µM; in test [6], 190 µM; in test [3] (setting [13]), 110 µM; in test [3] (setting [14]), 110 µM.

Consider `C[C@]12CCC(=O)C=C1CC[C@@H]1[C@@H]2CC[C@@]2(C)[C@H]1CC[C@]2(OC(=O)c1ccccc1)C(=O)CO` [CB-03-06, cortexolone 17α-benzoate], for which the “pancreatic tumor size increase relative to the start of treatment” value in test [7] (Examples 5 and 6, SC daily for 28 days, test compounds at high dose (approximately 1150 μM, 100 μL/mouse), Cyproterone Acetate treatment groups 7.4 and 37 mg/kg) is reported as “less than 5 fold”.

For `CC(=O)O[C@]1(C(C)=O)CC[C@H]2[C@@H]3C=C(Cl)C4=CC(=O)[C@@H]5C[C@@H]5[C@]4(C)[C@H]3CC[C@@]21C` [Cyproterone Acetate, Cyproterone acetate, reference compound], the IC50 in test [8] (Example 7, Experiment 1, read-out: IC50 (microM) on Resting PBMC) worked out at 18 µM; in [8] (Example 7, Experiment 2, read-out: IC50 (microM) on Resting PBMC), 84 µM; in test [4] (10 nM DHT, Examples 1-2, Experiment 1), 98 µM; in test [4] (10 nM DHT, Examples 1-2, Experiment 2) it was 90 µM; in test [4] (setting [15]), 90 µM; in test [1] (PANC-1, 72 h, Panc1, 10 nM DHT, 3 days, Examples 3-4, Experiment 1, sigmoidal dose-response curve fit, read-out: IC50), 54 µM. The IC50 in test [1] (PANC-1, 72 h, Panc1, 10 nM DHT, 3 days, Examples 3-4, Experiment 2, pooled experiments, least-squares fit, read-out: IC50) stood at 46 µM; in [1] (setting [10]), 46 µM; in test [1] (PANC-1, Panc1, Example 7, Experiment 1, read-out: IC50), 52 µM; in test [1] (PANC-1, Panc1, Example 7, Experiment 2, read-out: IC50), 46 µM; in [1] (setting [11]) it was 46 µM; in test [2] (setting [12]), 62 µM. Further, the IC50 in test [2] (stimulated PBMC, Example 7, Experiment 1, read-out: IC50 (microM) on Stimulated PBMC) came to 63 µM; in [2] (stimulated PBMC, Example 7, Experiment 2, read-out: IC50 (microM) on Stimulated PBMC), 62 µM; in test [5] (72 h, 10 nM DHT, 3 days, Examples 1-2, Experiment 1 (sigmoidal dose response fit), read-out: IC50) it was 29 µM; in [5] (72 h, 10 nM DHT, 3 days, Examples 1-2, Experiment 2 (nonlinear regression least squares fit), read-out: IC50), 22 µM; in [5] (setting [16]), 22 µM; in test [5] (setting [17]), 22 µM. Further, the IC50 in the test on MCF7 breast cancer cells came to 64 µM; in [6], 90 µM; in test [3] (MIA PaCa-2, 72 h, MiaPaca2, 10 nM DHT, 3 days, Examples 3-4, Experiment 1, sigmoidal dose-response curve fit, read-out: IC50), 46 µM; in [3] (MIA PaCa-2, 72 h, MiaPaca2, 10 nM DHT, 3 days, Examples 3-4, Experiment 2, pooled experiments, least-squares fit, read-out: IC50), 39 µM; in test [3] (setting [13]) it was 39 µM; in test [3] (MIA PaCa-2, MiaPaca2, Example 7, Experiment 1, read-out: IC50), 39 µM. In addition, the IC50 in test [3] (MIA PaCa-2, MiaPaca2, Example 7, Experiment 2, read-out: IC50) came out at 39 µM; in test [3] (setting [14]) it was 39 µM. The “pancreatic tumor size increase relative to the initial size, during the treatment period” value in test [7] (Example 22, 40 mg/Kg SC daily for 28 consecutive days) is reported as 12 fold.

Take `Nc1ccn([C@@H]2O[C@H](CO)[C@@H](O)C2(F)F)c(=O)n1` [Gemcitabine, reference compound]: in test [9], the “Caspase 3/7 induction” value is recorded as “not seen until the 48 hours mark”.
